Columns and labels:
[1] = target: recombinant human S1P1 receptor (Homo sapiens, UniProt P21453); assay: GTPγS assay to determine EC50 values; format: biochemical; conditions: 35S-GTPγS binding, membrane preparations of CHO cells expressing recombinant human S1P1 receptor
Experimental: GTPγS binding assays are performed in 96 well microtiter plates (Nunc, 442587) in a final volume of 200 μl, using membrane preparations of CHO cells expressing recombinant human S1P1 receptor. Assay conditions are 20 mM Hepes (Fluka, 54461), 100 mM NaCl (Fluka, 71378), 5 mM MgCl2 (Fluka, 63064), 0.1% BSA (Calbiochem, 126609), 1 μM GDP (Sigma, G-7127), 2.5% DMSO (Fluka, 41644), 50 pM ^35S-GTPγS (Amersham Biosciences, SJ1320). The pH is 7.4. Test compounds are dissolved and diluted in 100% DMSO and pre-incubated at room temperature for 30 min in 150 μl of the above assay buffer, in the absence of ^35S-GTPγS. After addition of 50 μl of ^35S-GTPγS, the assay is incubated for 1 h at rt. The assay is terminated by transfer of the reaction mixture to a Multiscreen plate (Millipore, MAHFC1H60) using a cell harvester from Packard Biosciences, and the plates are washed with ice-cold 10 mM Na2HPO4/NaH2PO4 (70%/30%), dried, sealed at the bottom and, after addition of 25 μl MicroScint20 (Packard Biosciences, order no. 6013621), sealed on the top. Membrane-bound ^35S-GTPγS is measured with a TopCount from Packard Biosciences.
EC50 is the concentration of agonist inducing 50% of the maximal specific ^35S-GTPγS binding. Specific binding is determined by subtracting non-specific binding from maximal binding. […]
The EC50 value was determined according to the method described above.

circulating lymphocytes = assay: Assessment of in vivo efficacy: circulating lymphocytes after oral administration; set-up: species or system normotensive male Wistar rats; conditions: 6 h after oral administration of 10 mg/kg, male Wistar rats, compared to vehicle group; mean ± SEM
Experimental: The efficacy of the compounds of Formula (I) is assessed by measuring the circulating lymphocytes after oral administration of 3 to 30 mg/kg of a compound of Formula (I) to normotensive male Wistar rats. The animals are housed in climate-controlled conditions with a 12 h-light/dark cycle, and have free access to normal rat chow and drinking water. Blood is collected before and 3, 6 and 24 h after drug administration. Full blood is subjected to hematology using Advia Hematology system (Bayer Diagnostics, Zurich, Switzerland).
All data are presented as mean ±SEM. Statistical analyses are performed by analysis of variance (ANOVA) using Statistica (StatSoft) and the Student-Newman-Keuls procedure for multiple comparisons. The null hypothesis is rejected when p<0.05.

Chain of recombinant human S1P1 receptor (P21453 whole entry): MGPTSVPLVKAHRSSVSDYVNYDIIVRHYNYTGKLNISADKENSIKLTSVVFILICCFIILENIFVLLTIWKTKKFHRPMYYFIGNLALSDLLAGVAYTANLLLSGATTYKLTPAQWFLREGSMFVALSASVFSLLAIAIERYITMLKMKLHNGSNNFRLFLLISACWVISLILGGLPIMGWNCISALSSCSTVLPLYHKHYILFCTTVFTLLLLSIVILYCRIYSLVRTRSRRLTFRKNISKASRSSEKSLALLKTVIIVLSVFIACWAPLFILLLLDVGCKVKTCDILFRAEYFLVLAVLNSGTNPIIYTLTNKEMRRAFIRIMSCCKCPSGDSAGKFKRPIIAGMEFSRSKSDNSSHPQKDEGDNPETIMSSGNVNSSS

| Compound | EC50 [1] | Lymphocyte counts (circulating lymphocytes) |
| --- | --- | --- |
| CCc1cc(CCC(=O)c2sc(C(F)(F)F)c3c2CCC(C)(C)C3)cc(C)c1CCC(=O)O [Example 4, 3-{4-[3-(5,5-Dimethyl-3-trifluoromethyl-4,5,6,7-tetrahydro-benzo[c]thiophen-1-yl)-3-oxo-propyl]-2-ethyl-6-methyl-phenyl}-propionic acid] | 4 nM | – |
| CCc1sc(C(=O)CCc2cc(C)c(CCC(=O)O)c(C)c2)c2c1CC(C)(C)CC2 [Example 1, 3-{4-[3-(3-ethyl-5,5-dimethyl-4,5,6,7-tetrahydro-benzo[c]thiophen-1-yl)-3-oxo-propyl]-2,6-dimethyl-phenyl}-propionic acid] | – | −61 ± 5% |
